Laboratory results: patent publication US9463204B2, “Method for inducing differentiation enabling tumorigenesis of IPS cells to be suppressed” (Osaka University, priority 2011, dated 2016)
Entries after “also recorded” stand apart in the source; their conditions may differ.

Tested on: mouse iPS cells
Assay: Tumorigenesis suppression effects of statins versus phenamil (osteoblasts from iPS cell aggregates transplanted under mouse dorsal skin)
Type: in vivo
Procedure: Statins are also known as compounds that promote osteoblast differentiation induction, and have the effect of differentiating iPS cells into osteoblasts. Osteoblasts obtained by inducing differentiation in the presence of an osteoblast differentiation induction promoter (phenamil 1 μM) that was not a statin (HMG-CoA reductase inhibitor) were used as a control.
Osteoblasts obtained by inducing differentiation for 30 days in the presence of a statin or phenamil were transplanted under mouse dorsal skin (both sides).

Structure (SMILES): NC(=Nc1ccccc1)NC(=O)c1nc(Cl)c(N)nc1N [phenamil]
- tumor formation after transplantation (FIG. 7) (1 μM compound in osteoblast differentiation-inducing medium for 30 days, 28 days after transplantation under mouse dorsal skin): a tumor was formed; also recorded: no tumor formation suppression effect was observed
- tissue other than bone tissue (tumorigenesis/teratoma) around the grafts (H&E, FIG. 8) (1 μM compound, 30 days differentiation induction, grafts extracted after 28 days): formation of tissue other than bone tissue (teratoma) was observed
